Results from PMC6259458, “Investigating the Spectrum of Biological Activity of Ring-Substituted Salicylanilides and Carbamoylphenylcarbamates” (Molecules, 2010).
Values after ≈ are worked out from the molar mass of the structure shown. Read-outs that look alike come from different tables or passages of the source.

Columns and labels:
[1] = Lipophilicity determination by RP-HPLC (capacity factor k / log k); format: physicochemical; conditions: C18 column, MeOH 70% / H2O 30%, isocratic
Procedure: Hydrophobicities (log P/Clog P) of the compounds 1-5 and 8-14 were calculated using two commercially available programs (ChemDraw Ultra 10.0 and ACD/LogP) and also measured by means of the RP-HPLC determination of capacity factors k with subsequent calculation of log k. The procedure was performed under isocratic conditions with methanol as an organic modifier in the mobile phase using an end-capped non-polar C18 stationary RP column. The results are shown in Table 1 and illustrated in Figure 1.
A Waters Alliance 2695 XE HPLC separation module and a Waters Photodiode Array Detector 2996 (Waters Corp., Milford, MA, USA) were used. A Symmetry® C18 5 μm, 4.6 × 250 mm, Part No. WAT054275 (Waters Corp., Milford, MA, USA) chromatographic column was used. The HPLC separation process was monitored by Empower™ 2 Chromatography Data Software, Waters 2009 (Waters Corp., Milford, MA, USA). A mixture of MeOH p.a. (70%) and H2O-HPLC – Mili-Q Grade (30%) was used as a mobile phase. The total flow of the column was 1.0 mL/min, injection volume 30 μL, column temperature 30 °C and sample temperature 10°C. The detection wavelength of 210 nm was chosen. The KI methanolic solution was used for the dead time (tD) determination. Retention times (tR) were measured in minutes. The capacity factors k were calculated using the Empower™ 2 Chromatography Data Software according to formula k = (tR - tD)/tD, where tR is the retention time of the solute, whereas tD denotes the dead time obtained using an unretained analyte. Log k, calculated from the capacity factor k, is used as the lipophilicity index converted to log P scale.

[2] = tested on: photosynthetic electron transport (PET) in spinach chloroplasts; experiment: Inhibition of photosynthetic electron transport (PET) in spinach chloroplasts, DCPIP photoreduction; format: biochemical, Spinacia oleracea L.; conditions: for IC50: DCPIP photoreduction, pH 7.2
Procedure: Chloroplasts were prepared from spinach (Spinacia oleracea L.) according to Masarovicova and Kralova. The inhibition of photosynthetic electron transport (PET) in spinach chloroplasts was determined spectrophotometrically (Genesys 6, Thermo Scientific, USA), using an artificial electron acceptor 2,6-dichlorophenol-indophenol (DCIPP) according to Kralova et al., and the rate of photosynthetic electron transport was monitored as a photoreduction of DCPIP. The measurements were carried out in phosphate buffer (0.02 mol/L, pH 7.2) containing sucrose (0.4 mol/L), MgCl2 (0.005 mol/L) and NaCl (0.015 mol/L). The chlorophyll content was 30 mg/L in these experiments and the samples were irradiated (~100 W/m^2) from 10 cm distance with a halogen lamp (250 W) using a 4 cm water filter to prevent warming of the samples (suspension temperature 22 °C). The studied compounds were dissolved in DMSO due to their limited water solubility.

Absidia corymbifera 272 = experiment: In vitro anti-fungal susceptibility, broth microdilution; format: cell-based
Procedure: (§1) The broth microdilution test was used for the assessment of in vitro anti-fungal activity of the synthesized compounds against Absidia corymbifera 272 (AC) and Trichophyton mentagrophytes 445 (TM). Fluconazole (FLU) was used as the standard since it is a clinically used anti-mycotic drug. The procedure was performed with a two-fold dilution of the compounds in […]., Prague, Czech Republic) buffered to pH 7.0 with 0.165 mol of 3-morpholino-propane-1-sulfonic acid (MOPS, Sigma, Germany). […] Drug-free controls were included. […] The values of the minimum inhibitory concentration (MICs) were determined after 24 and 48 h of static incubation at 35 °C. For T. mentagrophytes, the final MICs were determined after 72 and 120 h of incubation.

[3] = tested on: Trichophyton mentagrophytes 445; experiment: as above; format: cell-based; conditions: MIC = IC50 value, NA = no significant activity
Procedure: as §1

[4] = tested on: methicilin resistant Staphylococcus aureus H 5996/08; experiment: In vitro anti-bacterial susceptibility, Mueller-Hinton broth; format: cell-based; conditions: MRSA, methicillin-resistant Staphylococcus aureus, MIC = IC90 value, NA = no significant activity
[5] = tested on: Staphylococcus epidermidis H 6966/08; experiment: as above; format: cell-based; conditions: MIC = IC90 value, NA = no significant activity
[6] = set-up: method as in PMID 1151976; conditions: parameter of the substituents in the anilide part; cited from earlier work
[7] = Solubility in the PET testing medium (observation); format: physicochemical; conditions: precipitation during the experiments
Text: The activity of the rest of the studied compounds was moderate or low relative to the standard. PET inhibition by 8 or 9 could not be determined due to precipitation of the compounds during the experiments. With respect to these small but closed specifically substituted groups of compounds some structure-activity relationships (SAR) can be proposed.

[8] = tested on: photosynthetic apparatus of spinach chloroplasts (PS 2 / PS 1); experiment: Site of action: restoration of PET by artificial electron donors (DPC, DCPIPH2); format: biochemical, Spinacia oleracea L.
Procedure: To further determine the site of action of the studied compounds, experiments with 1,5-diphenylcarbazide (DPC) were performed. DPC is an artificial electron donor for PS 2 with a known site of action in the Z^•/D^• intermediate. The site of action of the artificial electron acceptor 2,6-dichlorophenol-indophenol (DCPIP) used for monitoring the Hill reaction is plastoquinone on the acceptor side of PS 2 [51]. Thus, if the part of the photosynthetic electron transport chain between manganese cluster and Z/D is inhibited, then DPC will restore PET through PS 2.

[9] = tested on: human SK-N-MC neuroepithelioma cell line; experiment: In vitro anti-proliferative activity, MTT assay; format: cell-based; conditions: SK-N-MC cells, 72 h
Procedure: Therefore, the anti-proliferative activity of compounds 1-5 was examined against the human SK-N-MC neuroepithelioma cell line to determine if there were any undesired cytotoxic side-effects. The SK-N-MC cell line was chosen as the effect of iron chelators on the proliferation of these cells has been extensively examined. The anti-proliferative activity of the evaluated compounds was assessed in comparison to the well-known clinically used iron chelator, desferrioxamine (DFO), and the highly cytotoxic chelator, di-2-pyridylketone 4,4-dimethyl-3-thiosemicarbazone (Dp44mT).
The human SK-N-MC neuroepithelioma cell type was obtained from the American Type Culture Collection (Manassas, VA, USA) and was cultured in minimum essential medium (MEM; Gibco, Melbourne, Australia) containing 10% (v/v) FBS, 1.0 mM sodium pyruvate (Gibco), 1% (v/v) non-essential amino acids (Gibco), 2 mM L-glutamine (Gibco), 100 U/mL penicillin (Gibco), streptomycin (Gibco) and 0.28 μg/mL fungizone (Squibb Pharmaceuticals, Montreal, Canada). […]
The effect of the compounds on cellular proliferation was determined by the MTT [1-(4,5-dimethylthiazol-2-yl)-2,5-diphenyl tetrazolium] assay using standard techniques. […] After solubilization of the cells with 100 μL of 10% SDS-50% isobutanol in 0.01 M HCl, the plates were read at 570 nm using a scanning multi-well spectrophotometer.

[10] = Lichtheimia corymbifera, 272, 24 h, read-out: MIC AC 24 h
[11] = Lichtheimia corymbifera, 272, 48 h, read-out: MIC AC 48 h
[12] = H6966/08, 24 h, read-out: MIC SE 24 h
[13] = H6966/08, 48 h, read-out: MIC SE 48 h

Structure (SMILES): Cc1cccc(C)c1NC(=O)c1ccccc1O [Compound 2, N-(2,6-Dimethylphenyl)-2-hydroxybenzamide]
- log k [1]: 0.6807
- IC50 [2]: 331 µM
- MIC (Absidia corymbifera 272; [10]): > 250 µM
- MIC (Absidia corymbifera 272; [11]): > 250 µM
- MIC ([3]; 72 h, read-out: MIC TM 72 h): 250 µM (≈ 60.3 µg/mL)
- MIC ([3]; 120 h, read-out: MIC TM 120 h): 500 µM (≈ 121 µg/mL)
- MIC ([4]; 24 h, read-out: MIC MRSA 24 h): > 500 µM
- MIC ([4]; 48 h, read-out: MIC MRSA 48 h): > 500 µM
- MIC [5, 12]: > 500 µM
- MIC [5, 13]: > 500 µM
- MR (bulk parameter, reflecting bulkiness) [6]: 9.4
- σ (Hammett's parameter) [6]: 0.20

Structure (SMILES): Nc1ccc(C(=O)NCc2ccccc2Cl)cc1 [Compound 11, 4-Amino-N-(2-chlorobenzyl)benzamide]
- log k [1]: 0.5886
- PET-inhibiting / biological activity in words [2]: very low activity
- IC50 [2]: 398 µM
- MR (bulk parameter, reflecting bulkiness) [6]: 4.7
- σ (Hammett's parameter) [6]: 0.67

Structure (SMILES): O=C(Nc1cc(C(F)(F)F)ccc1Cl)c1ccc([N+](=O)[O-])cc1 [Compound 10, N-[2-Chloro-5-(trifluoromethyl)phenyl]-4-nitrobenzamide]
- log k [1]: 0.8269
- PET-inhibiting / biological activity in words [2]: medium PET inhibiting activity
- IC50 [2]: 50.1 µM
- MR (bulk parameter, reflecting bulkiness) [6]: 8.7
- σ (Hammett's parameter) [6]: 1.10

Structure (SMILES): OC(Cn1cncn1)(Cn1cncn1)c1ccc(F)cc1F [FLU, Fluconazole, reference compound]
- MIC (Absidia corymbifera 272; [10]): > 125 µM
- MIC (Absidia corymbifera 272; [11]): > 125 µM
- MIC ([3]; 72 h, read-out: MIC TM 72 h): 1.95 µM (≈ 0.597 µg/mL)
- MIC ([3]; 120 h, read-out: MIC TM 120 h): 3.91 µM (≈ 1.2 µg/mL)

Structure (SMILES): CC1(C)S[C@@H]2[C@H](NC(=O)Cc3ccccc3)C(=O)N2[C@H]1C(=O)O [PEN, Penicillin G, reference compound]
- MIC ([4]; 24 h, read-out: MIC MRSA 24 h): 125 µM (≈ 41.8 µg/mL)
- MIC ([4]; 48 h, read-out: MIC MRSA 48 h): 125 µM (≈ 41.8 µg/mL)
- MIC [5, 12]: 31.6 µM (≈ 10.6 µg/mL)
- MIC [5, 13]: 125 µM (≈ 41.8 µg/mL)

Structure (SMILES): O=C(NCc1ccccc1Cl)c1ccc([N+](=O)[O-])cc1 [Compound 9, N-(2-Chlorobenzyl)-4-nitrobenzamide]
- log k [1]: 0.6966
- solubility in the testing medium [7]: low solubility
- MR (bulk parameter, reflecting bulkiness) [6]: 4.7
- σ (Hammett's parameter) [6]: 0.67

Structure (SMILES): COC(=O)Nc1ccc(C(=O)NCc2ccccc2Cl)cc1 [Compound 13, Methyl 4-(2-chlorobenzylcarbamoyl)phenylcarbamate]
- log k [1]: 0.6345
- IC50 [2]: 1.6 µM
- restoration of PET through PS 1 after addition of DCPIPH2 ([8]; DCPIPH2 40 μmol/L added to treated chloroplasts): completely restored
- restoration of PET through PS 2 after addition of DPC ([8]; DPC 2 mmol/L added to treated chloroplasts): not restored
- MR (bulk parameter, reflecting bulkiness) [6]: 4.7
- σ (Hammett's parameter) [6]: 0.67

Structure (SMILES): CCCOc1ccccc1NC(=O)c1ccccc1O [Compound 5, 2-Hydroxy-N-(2-propoxyphenyl)benzamide]
- log k [1]: 0.8401
- IC50 [2]: 44.8 µM
- MIC (Absidia corymbifera 272; [10]): 31.2 µM (≈ 8.48 µg/mL)
- MIC (Absidia corymbifera 272; [11]): 31.2 µM (≈ 8.48 µg/mL)
- MIC ([3]; 72 h, read-out: MIC TM 72 h): 31.2 µM (≈ 8.48 µg/mL)
- MIC ([3]; 120 h, read-out: MIC TM 120 h): 31.2 µM (≈ 8.48 µg/mL)
- MIC ([4]; 24 h, read-out: MIC MRSA 24 h): 31.2 µM (≈ 8.48 µg/mL)
- MIC ([4]; 48 h, read-out: MIC MRSA 48 h): 31.2 µM (≈ 8.48 µg/mL)
- MIC [5, 12]: 31.2 µM (≈ 8.48 µg/mL)
- MIC [5, 13]: 31.2 µM (≈ 8.48 µg/mL)
- MR (bulk parameter, reflecting bulkiness) [6]: 15.9

Structure (SMILES): O=C(Nc1ccccc1Cl)c1ccc([N+](=O)[O-])cc1 [Compound 8, N-(2-Chlorophenyl)-4-nitrobenzamide]
- log k [1]: 0.6782
- solubility in the testing medium [7]: low solubility
- MR (bulk parameter, reflecting bulkiness) [6]: 4.7
- σ (Hammett's parameter) [6]: 0.67

Structure (SMILES): Nc1ccc(C(=O)Nc2cc(C(F)(F)F)ccc2Cl)cc1 [Compound 12, 4-Amino-N-[2-chloro-5-(trifluoromethyl)phenyl]benzamide]
- PET-inhibiting / biological activity in words [2]: did not show any biological activity in any of the assays
- MR (bulk parameter, reflecting bulkiness) [6]: 8.7
- σ (Hammett's parameter) [6]: 1.10

Structure (SMILES): COC(=O)Nc1ccc(C(=O)Nc2cc(C(F)(F)F)ccc2Cl)cc1 [Compound 14, Methyl 4-[2-chloro-5-(trifluoromethyl)phenylcarbamoyl]phenylcarbamate]
- log k [1]: 0.7782
- IC50 [2]: 1 µM
- MR (bulk parameter, reflecting bulkiness) [6]: 8.7
- σ (Hammett's parameter) [6]: 1.10

Structure (SMILES): CN(C)C(=S)NN=C(c1ccccn1)c1ccccn1 [Dp44mT, di-2-pyridylketone 4,4-dimethyl-3-thiosemicarbazone]
- IC50 [9]: 0.01 ± 0.01 µM

Structure (SMILES): CC(=O)N(O)CCCCCNC(=O)CCC(=O)N(O)CCCCCNC(=O)CCC(=O)N(O)CCCCCN [DFO, desferrioxamine]
- IC50 ([9]; Homo sapiens): 17.1 ± 3.77 µM

Structure (SMILES): CCOc1ccccc1NC(=O)c1ccccc1O [Compound 4, N-(2-Ethoxyphenyl)-2-hydroxybenzamide]
- log k [1]: 0.7515
- IC50 [2]: 15 µM
- MIC (Absidia corymbifera 272; [10]): 62.5 µM (≈ 16.1 µg/mL)
- MIC (Absidia corymbifera 272; [11]): 125 µM (≈ 32.2 µg/mL)
- MIC ([3]; 72 h, read-out: MIC TM 72 h): 62.5 µM (≈ 16.1 µg/mL)
- MIC ([3]; 120 h, read-out: MIC TM 120 h): 62.5 µM (≈ 16.1 µg/mL)
- MIC ([4]; 24 h, read-out: MIC MRSA 24 h): 125 µM (≈ 32.2 µg/mL)
- MIC ([4]; 48 h, read-out: MIC MRSA 48 h): 125 µM (≈ 32.2 µg/mL)
- MIC [5, 12]: 125 µM (≈ 32.2 µg/mL)
- MIC [5, 13]: 125 µM (≈ 32.2 µg/mL)
- MR (bulk parameter, reflecting bulkiness) [6]: 11.3
- σ (Hammett's parameter) [6]: 0.02
